Results reported in patent US20250011311A1, “AMIDO HETEROAROMATIC COMPOUNDS” (AstraZeneca AB, priority 2022, published 2025).

Columns and labels:
[1] = biological target: human CB1 receptor expressed in transfected CHO cells (Homo sapiens (Human), UniProt P21554); assay: Assay C: CB1 Agonism Assay; format: cell-based; details: agonist activity, cAMP HTRF, read-out: Assay C: CB1 Hu CHO cAMP TRF Ag CR GMean EC50
Procedure: Assay C: CB1 Agonism Assay
Evaluation of the agonist activity of compounds at the human CB1 receptor expressed in transfected CHO cells, determined by measuring their effects on cAMP modulation using the HTRF detection method.
Thereafter, the adenylyl cyclase activator NKH 477 is added at a final concentration of 3 μM. Following 20 min incubation at 37° C., the cells are lysed and the fluorescence acceptor (D2-labeled cAMP) and fluorescence donor (anti-cAMP antibody labeled with europium cryptate) are added. After 60 min at room temperature, the fluorescence transfer is measured at gex=337 nm and gem=620 and 665 nm using a microplate reader (RUBYSTAR, BMG). The cAMP concentration is determined by dividing the signal measured at 665 nm by that measured at 620 nm (ratio). The results are expressed as a percent of the control response to 30 nM CP 55940. The standard reference agonist is CP 55940, which is tested in each experiment at several concentrations to generate a concentration-response curve from which its EC50 value is calculated.
Bibliographic reference Felder, C. C. et al., (1995), Comparison of the pharmacology and signal transduction of the human cannabinoid CB1 and CB2 receptors, Mol. Pharmacol., 48: 443, which is incorporated herein by reference.

[2] = biological target: over expressed HSD17β9 in HEK293S cells (Homo sapiens (Human), UniProt Q92781); assay: In Vitro 17bHSD9 Cell Assay; format: cell-based; details: HEK293S cells over expressing HSD17β9; retinol to retinal conversion, 18 h, LC-MS/MS; read-out: 17bHSD9 Cell assay IC50
Chain of over expressed HSD17β9 in HEK293S cells (Q92781 whole entry): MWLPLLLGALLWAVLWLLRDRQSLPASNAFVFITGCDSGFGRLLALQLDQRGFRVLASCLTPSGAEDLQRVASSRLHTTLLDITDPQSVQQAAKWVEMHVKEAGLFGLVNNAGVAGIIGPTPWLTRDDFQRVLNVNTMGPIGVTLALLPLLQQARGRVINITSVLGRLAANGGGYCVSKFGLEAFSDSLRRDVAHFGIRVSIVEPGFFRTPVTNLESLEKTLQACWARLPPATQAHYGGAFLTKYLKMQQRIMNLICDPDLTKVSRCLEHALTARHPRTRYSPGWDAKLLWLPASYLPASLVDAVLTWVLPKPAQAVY
Procedure, shortened: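 HEK293S cells overexpressing HSD17β9 were plated at 10K cells/well in DMEM + 10% FBS and cultured 18 h. Retinol-to-retinal conversion in media was quantified by LC-MS/MS (MRM) as retinal/(retinal + retinol). IC50 was fitted after normalisation to DMSO and full inhibition by a reference inhibitor.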

[3] = Metabolism Study: in vitro study to identify metabolites; format: in vitro ADME
Description: Metabolites 1 and 2 were subsequently synthesised and characterised.

Chain of human CB1 receptor expressed in transfected CHO cells (P21554 whole entry): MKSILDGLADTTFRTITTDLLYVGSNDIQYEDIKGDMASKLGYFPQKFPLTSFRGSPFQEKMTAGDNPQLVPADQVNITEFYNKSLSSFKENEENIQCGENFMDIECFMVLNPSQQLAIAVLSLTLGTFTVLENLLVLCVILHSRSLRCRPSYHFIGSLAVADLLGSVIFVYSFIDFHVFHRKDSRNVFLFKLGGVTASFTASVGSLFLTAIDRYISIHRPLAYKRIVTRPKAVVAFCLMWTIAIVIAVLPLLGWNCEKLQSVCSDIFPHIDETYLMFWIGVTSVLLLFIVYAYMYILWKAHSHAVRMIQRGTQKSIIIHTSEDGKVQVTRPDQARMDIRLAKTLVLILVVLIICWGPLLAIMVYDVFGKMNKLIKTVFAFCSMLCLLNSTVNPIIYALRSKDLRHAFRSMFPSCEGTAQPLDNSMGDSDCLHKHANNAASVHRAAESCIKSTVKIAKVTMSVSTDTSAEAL

Structure (SMILES)	EC50 [1]	IC50 [2]	metabolites identified [3]
C[C@@H]1CN(C(=O)c2noc(-c3cc(F)c(F)c(O)c3F)n2)C[C@H](C)O1 [Example 87, ((2R,6S)-2,6-Dimethylmorpholino)(5-(2,4,5-trifluoro-3-hydroxyphenyl)-1,2,4-oxadiazol-3-yl)methanone]	46 µM	36.3 µM	yielded Metabolite 1 and Metabolite 2
C[C@@H]1CN(C(=O)c2cnc(-c3cc(F)c(F)c(O)c3F)s2)C[C@H](C)O1 [Example 120, ((2R,6S)-2,6-Dimethylmorpholino)(2-(2,4,5-trifluoro-3-hydroxyphenyl)thiazol-5-yl)methanone]	8.5 µM	> 50 µM	
O=C(c1noc(-c2cc(F)c(F)c(O)c2F)n1)N1CCO[C@H]2CCC[C@@H]21 [Example 115, ((4aS,7aS)-Hexahydrocyclopenta[b][1,4]oxazin-4(4aH)-yl)(5-(2,4,5-trifluoro-3-hydroxyphenyl)-1,2,4-oxadiazol-3-yl)methanone]	> 100 µM	32.5 µM	
CC[C@H]1CN(C(=O)c2noc(-c3cc(F)c(F)c(O)c3F)n2)C[C@@H](C)O1 (racemic) [Example 121, rac-((2R,6S)-2-Ethyl-6-methylmorpholino)(5-(2,4,5-trifluoro-3-hydroxyphenyl)-1,2,4-oxadiazol-3-yl)methanone]	> 10 µM	16.4 µM	
CC1CN(C(=O)c2noc(-c3cc(F)c(F)c(O)c3F)n2)CC2(CCC2)O1 (racemic) [Example 123, (6-Methyl-5-oxa-8-azaspiro[3.5]nonan-8-yl)(5-(2,4,5-trifluoro-3-hydroxyphenyl)-1,2,4-oxadiazol-3-yl)methanone]	> 3 µM	30 µM	
O=C(c1noc(-c2cc(F)c(F)c(O)c2F)n1)N1CCO[C@@H]2CCC[C@H]21 [Example 114, ((4aR,7aR)-Hexahydrocyclopenta[b][1,4]oxazin-4(4aH)-yl)(5-(2,4,5-trifluoro-3-hydroxyphenyl)-1,2,4-oxadiazol-3-yl)methanone]	60.5 µM	15.8 µM	
C[C@@H]1CN(C(=O)c2ccc(-c3cc(F)c(F)c(O)c3F)s2)C[C@H](C)O1 [Example 3, ((2R,6S)-2,6-Dimethylmorpholino)(5-(2,4,5-trifluoro-3-hydroxyphenyl)thiophen-2-yl)methanone]	> 100 µM	> 50 µM	
C[C@@H]1CN(C(=O)c2cc(-c3cc(F)c(F)c(O)c3F)on2)C[C@H](C)O1 [Example 89, ((2R,6S)-2,6-Dimethylmorpholino)(5-(2,4,5-trifluoro-3-hydroxyphenyl)isoxazol-3-yl)methanone]	78.2 µM	> 50 µM	

More lines, in order of falling EC50 [1], values ahead:

EC50 [1]	IC50 [2]	metabolites identified [3]	Structure (SMILES)
22.3 µM	8.3 µM		CC(C)[C@H]1CN(C(=O)c2noc(-c3cc(F)c(F)c(O)c3F)n2)C[C@@H](C)O1 (racemic) [Example 122, rac-((2R,6S)-2-isopropyl-6-methylmorpholino)(5-(2,4,5-trifluoro-3-hydroxyphenyl)-1,2,4-oxadiazol-3-yl)methanone]
5.7 µM	21.1 µM		N#Cc1ccc2c(c1)CN(C(=O)c1noc(-c3cc(F)c(F)c(O)c3F)n1)CC2 [Example 86, 2-(5-(2,4,5-Trifluoro-3-hydroxyphenyl)-1,2,4-oxadiazole-3-carbonyl)-1,2,3,4-tetrahydroisoquinoline-7-carbonitrile]
3.4 µM	> 50 µM		C[C@@H]1C[C@H](C)CN(C(=O)c2nc(-c3cc(F)c(F)c(O)c3F)no2)C1 [Example 111, ((3R,5S)-3,5-Dimethylpiperidin-1-yl)(3-(2,4,5-trifluoro-3-hydroxyphenyl)-1,2,4-oxadiazol-5-yl)methanone]
3.2 µM	> 50 µM		N#Cc1cccc2c1CCN(C(=O)c1noc(-c3cc(F)c(F)c(O)c3F)n1)C2 [Example 66, 2-(5-(2,4,5-Trifluoro-3-hydroxyphenyl)-1,2,4-oxadiazole-3-carbonyl)-1,2,3,4-tetrahydroisoquinoline-5-carbonitrile]
3.1 µM	> 50 µM		O=C(c1noc(-c2ccc(F)c(O)c2)n1)N1CC[C@H](c2ccccc2)C1 [Example 11, (R)-(5-(4-Fluoro-3-hydroxyphenyl)-1,2,4-oxadiazol-3-yl)(3-phenylpyrrolidin-1-yl)methanone]
2.5 µM	10 µM		C[C@@H]1C[C@H](C)CN(C(=O)c2noc(-c3cc(F)c(F)c(O)c3F)n2)C1 [Example 37, ((3R,5S)-3,5-Dimethylpiperidin-1-yl)(5-(2,4,5-trifluoro-3-hydroxyphenyl)-1,2,4-oxadiazol-3-yl)methanone]
1.9 µM	13 µM		COc1ccccc1C1CCN(C(=O)c2noc(-c3cc(F)c(F)c(O)c3F)n2)C1 (centres unmarked) [Example 4, (3-(2-Methoxyphenyl)pyrrolidin-1-yl)(5-(2,4,5-trifluoro-3-hydroxyphenyl)-1,2,4-oxadiazol-3-yl)methanone]
0.5 µM	> 50 µM		CC1CN(C(=O)c2noc(-c3cc(F)c(F)c(O)c3F)n2)CC(C)(C)O1 (centres unmarked) [Example 117, (5-(2,4,5-Trifluoro-3-hydroxyphenyl)-1,2,4-oxadiazol-3-yl)(2,2,6-trimethylmorpholino)methanone]
0.4 µM	> 50 µM		O=C(c1noc(-c2cc(F)c(F)c(O)c2F)n1)N1CCO[C@@H]2CCC[C@@H]21 [Example 113, ((4aS,7aR)-Hexahydrocyclopenta[b][1,4]oxazin-4(4aH)-yl)(5-(2,4,5-trifluoro-3-hydroxyphenyl)-1,2,4-oxadiazol-3-yl)methanone]
